From PubChem BioAssay AID1918958 (Molecular Pharmacology Branch, DTP, NCI, 2023)

Tested on: NCI-H196 complex spheroid viability
Test: Anticancer human tumor NCI-H196 cell line growth inhibition [LSD1];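 further: spheroids exposed to agents for 7 days before readout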;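 on viability, T/C: 100% = DMSO vehicle control viability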
Details: for IC50: curve of first compound; for viability, T/C: stronger effect = lower value
Outline: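 Multicellular complex spheroids of tumor cells with human endothelial cells (HUVEC) and mesenchymal stem cells; the LSD1 inhibitor iadademstat was combined with standard-of-care or investigational agents. Top concentration at or near clinical Cmax, half-log dilutions; final DMSO ≤0.25%.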

CC1(C)CCC(CN2CCN(c3ccc(C(=O)NS(=O)(=O)c4ccc(NCC5CCOCC5)c([N+](=O)[O-])c4)c(Oc4cnc5[nH]ccc5c4)c3)CC2)=C(c2ccc(Cl)cc2)C1 + NC1CC1c1ccc(-c2cccc(O)c2)cc1
IC50 (second compound 0.1 µM): 5.68 µM
IC50 (second compound 0.316 µM): 5.2 µM
IC50 (second compound 1 µM): 5.54 µM
IC50 (second compound 3.16 µM): 5.49 µM
IC50 (second compound 10 µM): 4.93 µM
viability, T/C (second compound 0.1 µM, first compound 0.0316 µM): 91.2%
viability, T/C (second compound 0.1 µM, first compound 0.1 µM): 99.9%
viability, T/C (second compound 0.1 µM, first compound 0.316 µM): 99%
viability, T/C (second compound 0.1 µM, first compound 1 µM): 84.2%
viability, T/C (second compound 0.1 µM, first compound 3.16 µM): 85.7%
viability, T/C (second compound 0.1 µM, first compound 10 µM): 16.9%
viability, T/C (second compound 0.316 µM, first compound 0.0316 µM): 98.6%
viability, T/C (second compound 0.316 µM, first compound 0.1 µM): 101%
viability, T/C (second compound 0.316 µM, first compound 0.316 µM): 87.1%
viability, T/C (second compound 0.316 µM, first compound 1 µM): 84%
viability, T/C (second compound 0.316 µM, first compound 3.16 µM): 79.2%
viability, T/C (second compound 0.316 µM, first compound 10 µM): 16.1%
viability, T/C (second compound 1 µM, first compound 0.0316 µM): 94.3%
viability, T/C (second compound 1 µM, first compound 0.1 µM): 97.4%
viability, T/C (second compound 1 µM, first compound 0.316 µM): 95.6%
viability, T/C (second compound 1 µM, first compound 1 µM): 95.7%
viability, T/C (second compound 1 µM, first compound 3.16 µM): 79.2%
viability, T/C (second compound 1 µM, first compound 10 µM): 19%
viability, T/C (second compound 3.16 µM, first compound 0.0316 µM): 96.5%
viability, T/C (second compound 3.16 µM, first compound 0.1 µM): 105%
viability, T/C (second compound 3.16 µM, first compound 0.316 µM): 101%
viability, T/C (second compound 3.16 µM, first compound 1 µM): 84.8%
viability, T/C (second compound 3.16 µM, first compound 3.16 µM): 80.6%
viability, T/C (second compound 3.16 µM, first compound 10 µM): 20%
viability, T/C (second compound 10 µM, first compound 0.0316 µM): 94.9%
viability, T/C (second compound 10 µM, first compound 0.1 µM): 95.6%
viability, T/C (second compound 10 µM, first compound 0.316 µM): 97.3%
viability, T/C (second compound 10 µM, first compound 1 µM): 92.1%
viability, T/C (second compound 10 µM, first compound 3.16 µM): 72.5%
viability, T/C (second compound 10 µM, first compound 10 µM): 14.2%
